Data from ChEMBL document CHEMBL3797105, “Investigation of triazole-linked indole and oxindole glycoconjugates as potential anticancer agents: novel Akt/PKB signaling pathway inhibitors” (Medchemcomm, 2016).

What was measured:
[1] = Cytotoxicity against human DU145 cells after 48 hrs by sulforhodamine B assay; format: functional, cell-based; details: DU-145, 48 h
A549 = test: Cytotoxicity against human A549 cells after 48 hrs by sulforhodamine B assay; format: functional, cell-based; details: A549, 48 h
HeLa = test: Cytotoxicity against human HeLa cells after 48 hrs by sulforhodamine B assay; format: functional, cell-based
MCF7 = test: Cytotoxicity against human MCF7 cells after 48 hrs by sulforhodamine B assay; format: functional, cell-based; details: MCF7, 48 h
[2] = Cytotoxicity against mouse NIH/3T3 cells after 48 hrs by sulforhodamine B assay; details: NIH3T3, 48 h

SMILES	IC50 [1] [µM]	IC50 (A549) [µM]	IC50 (HeLa) [µM]	IC50 (MCF7) [µM]	IC50 [2] [µM]
CC(=O)OC[C@H]1O[C@@H](n2cc(CN3C(=O)/C(=C/c4ccc5ccccc5c4)c4ccccc43)nn2)[C@H](OC(C)=O)[C@@H](OC(C)=O)[C@@H]1OC(C)=O	43.7	30.9	> 100	32.7	28.4
COc1cccc2c1C(=O)c1c(O)c3c(c(O)c1C2=O)C[C@@](O)(C(=O)CO)C[C@@H]3O[C@H]1C[C@H](N)[C@H](O)[C@H](C)O1 [DOXORUBICIN]	5.4	–	7.2	6.1	10.1
COc1ccc2c(c1)c(/C=C1/C(=O)Nc3ccc(F)cc31)cn2Cc1cn([C@@H]2O[C@H](COC(C)=O)[C@@H](OC(C)=O)[C@H](OC(C)=O)[C@H]2OC(C)=O)nn1	> 200	> 200	> 200	> 200	> 200
CC(=O)OC[C@H]1O[C@@H](n2cc(CN3C(=O)/C(=C\c4ccc(N(C)C)cc4)c4ccccc43)nn2)[C@H](OC(C)=O)[C@@H](OC(C)=O)[C@@H]1OC(C)=O	10.1	17.7	25	29.8	17
COc1ccc(/C=C2\C(=O)N(Cc3cn([C@@H]4O[C@H](COC(C)=O)[C@@H](OC(C)=O)[C@H](OC(C)=O)[C@H]4OC(C)=O)nn3)c3ccccc32)cc1OC	24.9	23.3	63.4	23.5	> 100
CC(=O)OC[C@H]1O[C@@H](n2cc(CN3C(=O)/C(=C/c4ccccc4)c4ccccc43)nn2)[C@H](OC(C)=O)[C@@H](OC(C)=O)[C@@H]1OC(C)=O	22.8	20.6	37.1	30.2	> 100
CC(=O)OC[C@H]1O[C@@H](n2cc(Cn3cc(/C=C4/C(=O)Nc5ccccc54)c4ccccc43)nn2)[C@H](OC(C)=O)[C@@H](OC(C)=O)[C@@H]1OC(C)=O	> 200	> 200	> 200	22.2	> 200
CC(=O)OC[C@H]1O[C@@H](n2cc(CN3C(=O)/C(=C\c4ccccc4)c4ccccc43)nn2)[C@H](OC(C)=O)[C@@H](OC(C)=O)[C@@H]1OC(C)=O	24.1	17.9	33.3	24.3	22.8
CC(=O)OC[C@H]1O[C@@H](n2cc(Cn3cc(/C=C/C(=O)c4cccnc4)c4ccccc43)nn2)[C@H](OC(C)=O)[C@@H](OC(C)=O)[C@@H]1OC(C)=O	29	39.8	> 200	22.3	> 200
CC(=O)OC[C@H]1O[C@@H](n2cc(CN3C(=O)/C(=C\C=C\c4ccccc4)c4ccccc43)nn2)[C@H](OC(C)=O)[C@@H](OC(C)=O)[C@@H]1OC(C)=O	19.5	58.4	98.1	34.1	25.9
CC(=O)OC[C@H]1O[C@@H](n2cc(CN3C(=O)/C(=C/c4ccccn4)c4ccccc43)nn2)[C@H](OC(C)=O)[C@@H](OC(C)=O)[C@@H]1OC(C)=O	48.3	26.1	51.7	32.1	> 100
CC(=O)OC[C@H]1O[C@@H](n2cc(CN3C(=O)/C(=C/c4ccco4)c4ccccc43)nn2)[C@H](OC(C)=O)[C@@H](OC(C)=O)[C@@H]1OC(C)=O	10	14.5	29.9	29.1	31.8
CC(=O)OC[C@H]1O[C@@H](n2cc(CN3C(=O)/C(=C\c4ccco4)c4ccccc43)nn2)[C@H](OC(C)=O)[C@@H](OC(C)=O)[C@@H]1OC(C)=O	16.9	41.1	> 100	38.2	13.3
CC(=O)OC[C@H]1O[C@@H](n2cc(CN3C(=O)/C(=C/c4ccc(N(C)C)cc4)c4ccccc43)nn2)[C@H](OC(C)=O)[C@@H](OC(C)=O)[C@@H]1OC(C)=O	11.2	19.4	26.3	25.2	12.7
CCC/C=C1\C(=O)N(Cc2cn([C@@H]3O[C@H](COC(C)=O)[C@@H](OC(C)=O)[C@H](OC(C)=O)[C@H]3OC(C)=O)nn2)c2ccccc21	26.6	40.4	46.3	25	> 100
O=C(/C=C/c1c[nH]c2ccccc12)c1ccccc1	> 200	> 200	> 200	> 200	> 200

SMILES	IC50 [1] [µM]	IC50 (A549) [µM]	IC50 (HeLa) [µM]	IC50 (MCF7) [µM]	IC50 [2] [µM]
COc1ccc2c(c1)c(/C=N/O)cn2Cc1cn([C@@H]2O[C@H](COC(C)=O)[C@@H](OC(C)=O)[C@H](OC(C)=O)[C@H]2OC(C)=O)nn1	88.4	> 200	> 200	51	26.2
CC(=O)OC[C@H]1O[C@@H](OC(C)=O)[C@H](OC(C)=O)[C@@H](OC(C)=O)[C@@H]1OC(C)=O	> 200	> 200	> 200	> 200	> 200
CC(=O)OC[C@H]1O[C@@H](n2cc(CN3C(=O)/C(=C\c4ccc(C)cc4)c4ccccc43)nn2)[C@H](OC(C)=O)[C@@H](OC(C)=O)[C@@H]1OC(C)=O	9.4	16.5	> 100	> 100	9
Cc1ccc(/C=C2/C(=O)Nc3ccccc32)cc1	> 100	> 100	> 100	> 100	> 100
CC(=O)OC[C@H]1O[C@@H](n2cc(CN3C(=O)/C(=C\c4cccs4)c4ccccc43)nn2)[C@H](OC(C)=O)[C@@H](OC(C)=O)[C@@H]1OC(C)=O	22.8	16.1	> 100	36.1	14.6
CC(=O)OC[C@H]1O[C@@H](n2cc(CN3C(=O)/C(=C/C=C/c4ccccc4)c4ccccc43)nn2)[C@H](OC(C)=O)[C@@H](OC(C)=O)[C@@H]1OC(C)=O	17.1	> 100	> 100	53.2	12.3
CCC/C=C1/C(=O)N(Cc2cn([C@@H]3O[C@H](COC(C)=O)[C@@H](OC(C)=O)[C@H](OC(C)=O)[C@H]3OC(C)=O)nn2)c2ccccc21	19.7	24.1	> 100	22.6	> 100
CC(=O)OC[C@H]1O[C@@H](n2cc(Cn3cc(/C=C4/C(=O)Nc5ccc(F)cc54)c4ccccc43)nn2)[C@H](OC(C)=O)[C@@H](OC(C)=O)[C@@H]1OC(C)=O	87.4	36.9	> 200	40.4	62.5
CC(=O)OC[C@H]1O[C@@H](n2cc(Cn3cc([N+](=O)[O-])c4ccccc43)nn2)[C@H](OC(C)=O)[C@@H](OC(C)=O)[C@@H]1OC(C)=O	60.9	93.2	> 200	> 200	20.5
CC(=O)OC[C@H]1O[C@@H](n2cc(CN3C(=O)/C(=C\c4ccc5ccccc5c4)c4ccccc43)nn2)[C@H](OC(C)=O)[C@@H](OC(C)=O)[C@@H]1OC(C)=O	> 100	62.2	> 100	46.5	80
CC(=O)OC[C@H]1O[C@@H](n2cc(Cn3cc(C(C)=O)c4ccccc43)nn2)[C@H](OC(C)=O)[C@@H](OC(C)=O)[C@@H]1OC(C)=O	75.2	> 200	> 200	> 200	> 200
CC(=O)OC[C@H]1O[C@@H](n2cc(Cn3cc(C=O)c4ccccc43)nn2)[C@H](OC(C)=O)[C@@H](OC(C)=O)[C@@H]1OC(C)=O	58.7	> 200	44.5	25.2	> 200
CC(=O)OC[C@H]1O[C@@H](n2cc(Cn3cc(/C=C/C(=O)c4c5ccccc5cc5ccccc45)c4ccccc43)nn2)[C@H](OC(C)=O)[C@@H](OC(C)=O)[C@@H]1OC(C)=O	58.1	46.8	165	44	> 200
CC(=O)OC[C@H]1O[C@@H](n2cc(CN3C(=O)/C(=C/c4cccs4)c4ccccc43)nn2)[C@H](OC(C)=O)[C@@H](OC(C)=O)[C@@H]1OC(C)=O	23.4	20.8	36.9	28.1	48.1
COc1ccc2c(c1)c(C=O)cn2Cc1cn([C@@H]2O[C@H](COC(C)=O)[C@@H](OC(C)=O)[C@H](OC(C)=O)[C@H]2OC(C)=O)nn1	136	106	> 200	> 200	> 200
